From patent US9593305B2, “Differentiation of pluripotent stem cells” (Janssen Biotech, Inc., priority 2008, dated 2017)

Experiments:
[1] = tested on: H1 human embryonic stem cells; test: Step-wise differentiation, high content analysis of cell number, insulin, glucagon after step 5 (Example 17); assay type: cell-based; details: GDF-8 in step 1, alone or with a compound
Description: Step 5 of the differentiation protocol was carried out over seven days in DMEM-high glucose with 0.1% Albumax, 0.5× Insulin-Transferrin-Selenium, and 1 μM Alk 5 inhibitor. Medium in each well was aspirated and replaced with a fresh aliquot (0.5 ml) on all days. At the conclusion of the fifth step of differentiation, cells from some wells were harvested for analysis by RT-PCR to measure markers of differentiation. Other culture wells were subjected to high content image analysis for protein expression levels of insulin and glucagon.
At the conclusion of culture, assay plates were washed once with PBS (Invitrogen; Cat #14190), fixed with 4% paraformaldehyde (Alexis Biochemical; Cat #ALX-350-011) at room temperature for 20 minutes, then washed three times with PBS and permeabilized with 0.5% Triton X-100 (Sigma; Cat #T8760-2) for 20 minutes at room temperature. […]
Imaging was performed using an IN Cell Analyzer 1000 (GE Healthcare) utilizing the 51008bs dichroic for cells stained with Hoechst 33342 and Alexa Fluor 488. […] Segmentation for the nuclei was determined based on gray-scale levels (baseline range 100-300) and nuclear size. Averages and standard deviations were calculated for each replicate data set. Total protein expression was reported as total intensity or integrated intensity, defined as total fluorescence of the cell multiplied by the area of the cell. […]

H1 p49C3 cells = test: Differentiation on microcarrier beads, cell number and CXCR4 by flow cytometry (Example 22); assay type: cell-based, human; details: three days
Description: H1 p49C3 cells were routinely grown on Cytodex3 beads (GE Healthcare Life Sciences, NJ) in a 125 ml spinner flask, according to the methods described in U.S. Patent Application No. 61/116,447. After seven days, cells and beads were transferred to a 6 well plate at a ratio of 30 cm^2 bead surface area per well, and the plate was placed on a rocking platform. Cells on beads in the positive control treatment well (designated AA/Wnt3a) were differentiated with addition of 100 ng/ml activin A (PeproTech; Cat #120-14) and 20 ng/ml Wnt3a (R&D Systems; Cat #1324-WN/CF) for two days followed by 100 ng/ml activin A and 8 ng/ml bFGF (PeproTech Inc.; Cat #: 100-18B) for one day in RPMI-1640 (Invitrogen; Cat #: 22400) with 2% Fatty Acid Free BSA (MP Biomedicals, Inc; Cat #152401) using volumes of 2 ml/well. Compound 34, at a final concentration of 2.5 nM was added to a negative control treatment well (designated CMP alone (JNJ alone)) in RPMI-1640 with 2% Fatty Acid Free BSA (2 ml/well) for three days in the absence of any other growth factor treatment. […]
At the conclusion of treatment and culture, cells were harvested from the beads, according to the methods described in U.S. Patent Application No. 61/116,447. The harvested cells were counted and analyzed by flow cytometry, according to the methods described above. […]

| Molecule | insulin and glucagon expression at the conclusion of step five [1] | differentiation into CXCR4 positive cells (H1 p49C3 cells; Compound 34 alone, no growth factor, Cytodex3 beads) | CXCR4 expression, % of the cells, on average (H1 p49C3 cells; Compound 34 with the various growth factor combinations including 50 ng/ml GDF-8, Cytodex3 beads) [%] |
| --- | --- | --- | --- |
| GDF-8: growth factor GDF-8, also known as myostatin, member of the TGF-β family | resulted in insulin and glucagon expression | – | – |
| O=C1CCN2CCN(CC2)Cc2cc(Cl)cc(c2)Nc2ncnc(n2)-c2cncc(c2)CCCN1 [Compound 34, 5-Chloro-1,8,10,12,16,22,26,32-octaazapentacyclo[24.2.2.1˜3.7˜0.1˜9,13˜0.1˜14.18˜]tritriaconta-3(33), 4,6,9(32), 10,12,14(31), 15,17-nonaen-23-one] | – | did not differentiate into CXCR4 positive cells | 50 |
